Experimental findings from patent US20220056014A1, “PHENYLPYRROLIDINE COMPOUND AND USE THEREOF” (WUHAN HUMANWELL INNOVATIVE DRUG RESEARCH AND DEVELOPMENT …, priority 2018, published 2022) are described below.

A word on the IC50: it is the concentration that gives 50% inhibition. Usually AUC(0-t) stands for exposure summed from dosing to a finite time, without extrapolation to infinity. A high value points to high exposure. What is called Cmax is the peak of the concentration-time curve. A word on the Tmax: it is the time at which the peak concentration occurs.

Like-named read-outs stand apart in the source and are kept apart here.

One series has as its target T1, PDE4B (Homo sapiens, UniProt Q07343).
T1 construct: purchased Enzo Life Sciences BML-SE522-0020
Nature of the series: PDE4B enzyme activity assay (PDE-Glo Phosphodiesterase Assay Kit). The class given is biochemical. Particulars: for IC50 (PDE4D)/IC50 (PDE4B): selectivity ratio. In short, it runs like this: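 Recombinant human PDE4B (1 ng/μl working solution) or PDE4D (4 ng/μl working solution) preincubated 5 min at RT with compound, then reacted 20 min with cAMP (2 μM in added solution). PDE-Glo termination/detection and Kinase-Glo steps followed; luminescence read and IC50 fitted.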

The next series addresses T2, PDE4D (Homo sapiens, UniProt Q08499).
T2 construct: purchased Enzo Life Sciences BML-SE523-0020
In words: PDE4D enzyme activity assay (PDE-Glo Phosphodiesterase Assay Kit). It counts as biochemical. On the procedure:
For the previously synthesized compounds, the inhibitory activity of the compounds against PDE4B and against PDE4D was tested by using PDE-Glo Phosphodiesterase Assay Kit (promega, V1361). In short, in accordance with the instructions of the kit, a concentrated stock solution (10 mM) the compound to be tested was first prepared with DMSO solvent, and the concentrated stock solution was then diluted into 10× working solutions with a Reaction buffer provided in the kit. With the Reaction buffer, on ice, PDE4B enzyme (Enzo Life Sciences, BML-SE522-0020) was diluted to a concentration of 1 ng/μl to obtain a PDE4B enzyme working solution, and PDE4D enzyme (Enzo Life Sciences, BML-SE523-0020) was diluted to a concentration of 4 ng/μl to obtain a PDE4D enzyme working solution. 1.5 μl of the PDE4B working solution (or PDE4D working solution) and 1 μl of the compound working solution were added to wells of 384-well plate (Corning, CLS3707), and incubated with shaking at room temperature for 5 min, followed by adding 2.5 μl of cAMP (in Reaction buffer, 2 μM) per well, incubating with shaking at room temperature for 20 min. 2.5 μl/well of 1× Termination Buffer, and then 2.5 μl/well of 1× Detection Buffer were added, and further incubated with shaking at room temperature for 20 min. 10 μl/well of 1× Kinase-Glo was added, and the plate was incubated with shaking at room temperature for 10 min, and bioluminescence was measured with PheraStar instrument. The experimental results were plotted with GraphPad Prism software, and fitted to calculate IC50 of each compound.

Series [1] deals with LPS-induced secretion of TNFα in human PBMCs. Nature of the series: LPS-induced secretion of TNFα in human PBMCs. The class given is cell-based. The note with it: Homo sapiens, PBMC, 24 h, LPS 10 ng/ml. Here is the method:
Extraction process of peripheral blood mononuclear cells (PBMCs): one unit of human peripheral blood concentrate (concentrated from 200 cc peripheral blood) was sucked and added with 0.9% saline until a total volume reached 120 ml, and mixed homogenously. 15 ml Lymphoprep™ was added into 50 ml centrifuge tube, and then 30 ml of diluted blood concentrate was carefully and slowly added thereto, allowing the diluted blood to be stacked on the layered solution and preventing the diluted blood from being mixed into the separated solutions or breaking the surface of the separated solution, wherein a ratio of Lymphoprep™ to the diluted blood was 1:2. The centrifuge tubes were balanced and placed in a horizontal centrifuge (eppendorf, 5810R), and centrifuged at 800 g and 20° C. for 20 min. The centrifuge tubes were carefully taken out. PBMCs were absorbed by directly inserting the Pasteur pipette deep into the buffy coat. The obtained PBMCs were gently pipetted with 3 times the volume of 0.9% normal saline or PBS (without calcium or magnesium ions) to mix homogenously. After that, the cells were centrifuged at 250 g and 20° C. for 10 min, the supernatant was removed to remove the platelets remaining in the cell suspension. The obtained cell pellet was resuspended in 20 ml of PBS, and counted using trypan blue.
Compound screening by using PBMCs: the PBMC suspension obtained above was centrifuged to remove PBS, then resuspended in complete medium (RPMI1640+10% FBS+1% P/S) and counted. 100 μL/well of the cells was seeded at 5×10^4/well. Each of the compounds to be screened was prepared as 4 times the final concentration, which was added to the cells at 50 μL/well. The compound was pre-incubated for 30 min in advance of being added to the cells. Meanwhile, control wells to which the compound was not added were provided. A final stimulation concentration of LPS was 10 ng/ml, and LPS was formulated as 4 times the final stimulation concentration, and added to the cells at 50 μL/well. Meanwhile, control wells, i.e., wells without LPS were provided. The cells were incubated for 24 h, and 10% of the supernatant was collected for detection. The obtained supernatant was detected using Invitrogen's Human TNF-α kit (REF: 88-7346-88).

For series [2], the system named is LPS-stimulated TNF-α release. Nature of the series: LPS-stimulated TNF-α release in mice. It counts as in vivo, Balb/c mice. The note with it: Mus musculus, oral 50 mg/kg (positive control 100 mg/kg), 1 mg/kg LPS i.p. Here is the method:
18 Balb/c mice (6 to 8 weeks) were randomly assigned to a blank group, a model group, and an administration group, 6 mice in each group. A vehicle (blank group, model group) or 50 mg/kg compound (administration group, where the dose for the positive control group was 100 mg/kg) was orally administrated. 30 min after the oral administration, PBS (blank group) or 1 mg/kg LPS (model group and administration group) was injected intraperitoneally. 90 min or 120 min after the intraperitoneal injection, blood was collected from the hearts of the mice, and still stood at 2-8° C. for 4 hours, and centrifuged at 5000 rpm for 10 min to collect the serum. The serum was stored at −80° C. for testing.
The serum TNF-α level was tested using a mouse TNF-α detection kit (Mouse TNFa ELISA kit: Biolegend, Cat: 430904). The inhibitory activity of the compounds against the TNF-α release was calculated based on the serum TNF-α level.
Inhibitory activity of compound %={1−(TNFα concentration of administration group−TNFα concentration of blank group)/(TNFα concentration of model group−TNFα concentration of blank group)}×100%.

The nature of series [3]: Mouse pharmacokinetic test. Particulars: male, CD-1, plasma, oral gavage 10 mg/kg. It counts as in vivo, CD-1 mice. On the procedure: (§1) In the rat pharmacokinetic test, 3 male SD rats (180-240 g) were fasted overnight, and orally administered with 10 mg/kg of compound to be tested. Blood was collected before the administration, and 15 min, 30 min, 1 h, 2 h, 4 h, 8 h, and 24 h hours after the administration. The blood sample was centrifuged at 8000 rpm for 6 min at 4° C., and the plasma was collected and stored at −20° C. The plasma collected at each time point was added and mixed with 3-5 times the amount of acetonitrile solution containing an internal standard, vortexed for 1 min, centrifuged at 13,000 rpm for 10 min at 4° C. The supernatant was taken and mixed with 3 times the amount of water, and an appropriate amount of the mixture was taken for LC-MS/MS analysis. The main pharmacokinetic parameters were analyzed with WinNonlin 7.0 software non-compartmental model.
(§2) In the mouse pharmacokinetic test, 9 male CD-1 mice (20-25 g) were fasted overnight, and orally administered with 10 mg/kg of the compound to be tested. Bloods of 3 mice were collected at each time point, and bloods of 9 mice were alternately collected in total. In the pharmacokinetic test in canine, 3 male beagle dogs (8-10 kg) were fasted overnight, and orally administered with 5 mg/kg of the compound to be test. In the pharmacokinetic test of cynomolgus monkeys, 3 male cynomolgus monkeys (4 to 6.5 kg) were fasted overnight, and orally administered 20 mg/kg of the compound to be test. The remaining processes are the same as those of the rat pharmacokinetic test.

A short description of the next series: Rat pharmacokinetic test. The note with it: male, Sprague-Dawley (SD), plasma, oral gavage 10 mg/kg. It counts as in vivo, SD rats. Here is the method:
as §1

Series [4] can be described thus: Pharmacokinetic test in canine. The class given is in vivo, beagle dogs. The note with it: male, beagle, dog, plasma, oral gavage 5 mg/kg. Here is the method: as §1, §2
Setting [5] is: 2 h, blood 120 min after LPS, read-out: Inhibition rate (%) of LPS-stimulated TNF-α release, 120 min.

T1 sequence (Q07343 whole entry): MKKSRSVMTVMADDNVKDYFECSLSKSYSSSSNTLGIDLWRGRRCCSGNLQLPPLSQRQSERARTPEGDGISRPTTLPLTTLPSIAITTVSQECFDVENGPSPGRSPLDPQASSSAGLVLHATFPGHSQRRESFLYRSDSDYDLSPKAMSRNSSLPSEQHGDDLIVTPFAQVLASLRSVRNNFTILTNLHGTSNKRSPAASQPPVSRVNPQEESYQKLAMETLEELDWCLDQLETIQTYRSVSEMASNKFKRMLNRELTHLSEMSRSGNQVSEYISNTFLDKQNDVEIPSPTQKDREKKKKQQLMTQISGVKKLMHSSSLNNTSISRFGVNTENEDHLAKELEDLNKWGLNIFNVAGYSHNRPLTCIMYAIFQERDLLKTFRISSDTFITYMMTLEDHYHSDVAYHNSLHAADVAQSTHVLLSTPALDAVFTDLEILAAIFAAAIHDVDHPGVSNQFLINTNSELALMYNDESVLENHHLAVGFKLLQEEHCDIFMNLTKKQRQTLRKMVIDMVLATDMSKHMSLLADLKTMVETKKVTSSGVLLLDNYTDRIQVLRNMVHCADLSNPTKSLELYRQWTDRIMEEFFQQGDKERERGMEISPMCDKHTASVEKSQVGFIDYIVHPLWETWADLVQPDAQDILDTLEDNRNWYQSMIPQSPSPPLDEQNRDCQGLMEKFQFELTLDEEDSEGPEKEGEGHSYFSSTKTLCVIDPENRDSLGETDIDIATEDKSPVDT
T2 sequence (Q08499 whole entry): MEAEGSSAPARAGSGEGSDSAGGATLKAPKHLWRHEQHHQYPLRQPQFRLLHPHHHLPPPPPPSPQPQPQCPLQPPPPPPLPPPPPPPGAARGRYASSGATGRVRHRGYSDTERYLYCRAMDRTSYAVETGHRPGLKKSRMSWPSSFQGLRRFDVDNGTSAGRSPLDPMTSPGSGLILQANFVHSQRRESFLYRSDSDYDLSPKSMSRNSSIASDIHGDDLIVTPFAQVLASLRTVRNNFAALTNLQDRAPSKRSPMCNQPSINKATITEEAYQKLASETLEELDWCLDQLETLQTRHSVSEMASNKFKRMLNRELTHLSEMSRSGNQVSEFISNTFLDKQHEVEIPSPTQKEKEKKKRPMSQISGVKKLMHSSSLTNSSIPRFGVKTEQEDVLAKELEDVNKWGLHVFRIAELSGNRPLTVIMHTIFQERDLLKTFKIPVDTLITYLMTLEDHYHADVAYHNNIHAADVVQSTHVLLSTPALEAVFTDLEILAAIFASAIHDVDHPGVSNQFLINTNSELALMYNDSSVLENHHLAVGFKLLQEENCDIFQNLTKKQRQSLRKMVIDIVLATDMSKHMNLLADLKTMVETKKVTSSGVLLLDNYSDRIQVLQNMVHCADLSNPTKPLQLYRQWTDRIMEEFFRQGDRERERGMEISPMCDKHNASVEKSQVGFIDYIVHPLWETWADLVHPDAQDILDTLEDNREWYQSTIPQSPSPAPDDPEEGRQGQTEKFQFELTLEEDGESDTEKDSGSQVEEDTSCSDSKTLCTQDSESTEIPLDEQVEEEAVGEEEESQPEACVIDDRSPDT

`COc1ccc([C@@H]2CN(C(=O)[C@@H](O)CO)C[C@@]2(C)[C@@H](C)O)cc1OC1CN(c2cc(Cl)c(C)cn2)C1` [Compound 002, (S)-1-((3S,4S)-4-(3-((1-(4-chloro-5-methylpyridin-2-yl)azetidin-3-yl)oxy)-4-methoxyphenyl)-3-((R)-1-hydroxyethyl)-3-methylpyrrolidin-1-yl)-2,3-dihydroxypropan-1-one]: the values for the IC50 (against PDE4B; against PDE4D; in series [1]) were 0.43 nM, 0.16 nM and 0.56 nM, respectively. For the same compound, the “IC50 (PDE4D)/IC50 (PDE4B)” value at PDE4B is given as 0.37. In addition, in series [2] (setting [5]), the inhibition in vivo at 50 mg/kg stood at 66.2%. Also, the values for the AUC(0-t) (in series [3]; in “Rat pharmacokinetic test”; in series [4]) were 386 ng·h/mL, 103 ng·h/mL and 534 ng·h/mL, respectively. Moreover, the maximum concentration (Cmax) in series [3] amounted to 355 ng/mL; in “Rat pharmacokinetic test” it was 41.6 ng/mL; in series [4], 198 ng/mL. Moreover, the Tmax in series [3] was determined as 15 min; in “Rat pharmacokinetic test”, 19.8 min; in series [4], 60 min.

Consider `COc1ccc([C@@H]2CN(C(=O)[C@@H](O)CO)C[C@@]2(C)[C@@H](C)O)cc1OC1CN(c2cc(C)c(C)cn2)C1` [Compound 008, (S)-1-((3S,4S)-4-(3-((1-(4,5-dimethylpyridin-2-yl)azetidin-3-yl)oxy)-4-methoxyphenyl)-3-((R)-1-hydroxyethyl)-3-methylpyrrolidin-1-yl)-2,3-dihydroxypropan-1-one], for which the results for the IC50 (at PDE4B; at PDE4D; in series [1]) were 1.46 nM, 3.58 nM and 1.81 nM, respectively. The “IC50 (PDE4D)/IC50 (PDE4B)” value at PDE4B was determined as 2.45. The inhibition in vivo at 50 mg/kg in series [2] (setting [5]) amounted to 63%. For the same compound, the AUC(0-t) came to 625 ng·h/mL in series [3], 443 ng·h/mL in “Rat pharmacokinetic test” and 1760 ng·h/mL in series [4]. The Cmax in series [3] came out at 298 ng/mL; in “Rat pharmacokinetic test”, 133 ng/mL; in series [4], 534 ng/mL. Also, the results for the Tmax (in series [3]; in “Rat pharmacokinetic test”; in series [4]) were 30 min, 15 min and 30 min, respectively.

Take `COc1ccc([C@@H]2CN(C(=O)[C@@H](O)CO)C[C@@]2(C)[C@@H](C)O)cc1OC1CN(c2cc(C)c(Cl)cn2)C1` [Compound 010, (S)-1-((3S,4S)-4-(3-((1-(5-chloro-4-methylpyridin-2-yl)azetidin-3-yl)oxy)-4-methoxyphenyl)-3-((R)-1-hydroxyethyl)-3-methylpyrrolidin-1-yl)-2,3-dihydroxypropan-1-one]: the IC50 on PDE4B came out at 1.9 nM; at PDE4D, 0.95 nM; in series [1], 1.05 nM. The “IC50 (PDE4D)/IC50 (PDE4B)” value on PDE4B amounted to 0.50. For the same compound, the inhibition in vivo at 50 mg/kg in series [2] (1.5 h, blood 90 min after LPS, read-out: Inhibition rate (%) of LPS-stimulated TNF-α release, 90 min) is 47.6%; in series [2] (setting [5]), 65.4%. The AUC(0-t) worked out at 645 ng·h/mL in series [3], 95.3 ng·h/mL in the series “Rat pharmacokinetic test” and 1640 ng·h/mL in series [4]. Further, the Cmax in series [3] stood at 314 ng/mL; in the series “Rat pharmacokinetic test”, 40.4 ng/mL; in series [4] it was 413 ng/mL. Further, the Tmax in series [3] worked out at 15 min; in the series “Rat pharmacokinetic test”, 19.8 min; in series [4] it was 49.8 min.
